From patent publication US4211794A, “N,N-Disubstituted aminomethylphenylethanolamines” (Pfizer Inc., priority 1979, dated 1980)

What was measured:
B-16 cells = experiment: Peritoneal Exudate Cell Mediated Cytotoxicity in Vitro (macrophages from drug-injected mice); type: cell-based; settings: Mus musculus, B16, effector:target 15:1, 24 hours at 37°, read-out: % Cytotoxicity (percent release drug-treated minus vehicle treated); for cytotoxicity at 1 mg/kg: 1 mg/kg injected to mice; for cytotoxicity at 5 mg/kg: 5 mg/kg injected to mice; for cytotoxicity at 25 mg/kg: 25 mg/kg injected to mice
Method: Peritoneal Exudate Cell Mediated Cytotoxicity in Vitro
Peritoneal exudate cells (PEC) from normal mice injected with immune potentiators or drug vehicle were harvested by gentle lavage with 3 ml cold RPMI 1640 medium (Grand Island Biological Co., N.Y.) supplemented with 5 units of heparin per ml of medium. Macrophages were identified morphologically, counted, and adjusted to 7.5×10^5 cells per ml of tissue culture medium; 0.2 ml volumes were added to microtiter wells containing 10^4 B-16 cells with ^125 IUDR label (effector: target cell ratio=15:1). After 24 hours at 37° in 5% CO2, supernatants were decanted and the adherent cells washed 3 times with pre-warmed RPMI 1640; the supernatant and washings were pooled and retained for counting. The adherent cells were treated with 1% sodium dodecyl sulfate (SDS) at room temperature for 30 minutes. The SDS-treated cells were harvested and the cells washed 3 times with RPMI 1640; cells and washings were pooled for counting. Supernatants and cells were counted in a Searle 1185 gamma counter. Results were expressed as: [formula]
The table below gives the percent cytotoxicity for 1-I, 2-I and 3-I wherein Percent Cytotoxicity equals (Percent release from drug-treated) minus (Percent release from vehicle treated).

Sarcoma 180J = Sarcoma 180J Model for Assessment of Tumor Rejection; type: in vivo, CD-1 mice (female); settings: for %ILS (percent life span): day 1 after 10^6 S-180J cells i.p., observed until death or 40 days, TWEEN 80/glycerol aqueous suspension; for numbers of 40 day survivors: six mice per group
Method: Sarcoma 180J Model for Assessment of Tumor Rejection
Six female CD-1 mice (20-25 g) per group received 10^6 S-180J cells (5-8 days old) intraperitoneally (i.p.) on day O. The animals then received formulated drug (0.1 ml) at the desired dose on day 1 following tumor cell injection. The animals were observed until death or 40 days, whichever occurred first. Results using compounds 1-I, 2-I, 3I and 4I are expressed as percent life span (% ILS).
^ a compounds were formulated in TWEEN 80/glycerol aqueous
^b Numbers in parenthesis are numbers of 40 day survivors.

[1] = system: encephalomyocarditis (EMC) virus; experiment: Prophylactic use against encephalomyocarditis (EMC) viral infection in mice; type: in vivo, mice (female albino); settings: single intraperitoneal, 18-24 hours before EMC challenge, tenth day after challenge, average of 2 runs
Method: Prophylactic use of compounds (1-I), (2-I) and (3-I) against infection by encephalomyocardis viral infection in mice
Three groups of ten female albino micce (20-25 g. body weight) were given single 0.5 ml. intraperitoneal injections containing dosage levels of 1.5, 5, and 15 mg. of the appropriate compound/kg. body weight, respectively. A fourth control group was given no such injection. Eighteen to twenty-four hours later all four groups were challenged with a 0.2 ml. subcutaneous injection containing 20-30 times the LD50, the dosage level causing a 50% death rate in ten days, of encephalomyocarditis (EMC) virus. The following relative average survival rates were found from an average of 2 such runs for compounds 1-I, 2-I and 3-I.
Antiviral activity is expressed as the average relative survival (Sr) of 2 runs of experimental groups compared to the controls on the tenth day after challenge. Sr is defined by the formula [formula] wherein Sr=relative survival;
Sx =percent survival after ten days in experimental group;
Xi =number of survivors on the ith day in experimental group;
ei =number of survivors on the ith day in control group.

SMILES: CCCCCCCCCCCCCCCCN(CCCCCCCCCCCCCCCC)Cc1cccc(C(O)CNCC)c1 (stereo not shown) [Compound 1-I, N-ethyl-2-[meta-N,N-di-n-hexadecylaminomethylphenyl]ethanolamine]
- cytotoxicity at 1 mg/kg (B-16 cells): 35.7%
- cytotoxicity at 5 mg/kg (B-16 cells): 25.6%
- cytotoxicity at 25 mg/kg (B-16 cells): 23.8%
- %ILS (percent life span) (Sarcoma 180J; 5 mg/kg): 150%
- numbers of 40 day survivors (Sarcoma 180J; 5 mg/kg): 1
- %ILS (percent life span) (Sarcoma 180J; 15 mg/kg): 210%
- numbers of 40 day survivors (Sarcoma 180J; 15 mg/kg): 4
- %ILS (percent life span) (Sarcoma 180J; 50 mg/kg): 235%
- numbers of 40 day survivors (Sarcoma 180J; 50 mg/kg): 5
- Average Relative Survival (Sr) ([1]; 1.5 mg/kg): 24.5
- Average Relative Survival (Sr) ([1]; 5 mg/kg): 65.5
- Average Relative Survival (Sr) ([1]; 15 mg/kg): 70

SMILES: CCCCCCCCCCCCCCCCN(CCCCCCCCCCCCCCCC)Cc1cccc(C(O)CNC(C)(C)C)c1 (stereo not shown) [Compound 2-I, N-t-butyl-2-[meta-N,N-di-n-hexadecylamino-methylphenyl]ethanolamine]
- cytotoxicity at 1 mg/kg (B-16 cells): 31.2%
- cytotoxicity at 5 mg/kg (B-16 cells): 33.6%
- cytotoxicity at 25 mg/kg (B-16 cells): 27.2%
- %ILS (percent life span) (Sarcoma 180J; 5 mg/kg): 154%
- numbers of 40 day survivors (Sarcoma 180J; 5 mg/kg): 1
- %ILS (percent life span) (Sarcoma 180J; 15 mg/kg): 134%
- %ILS (percent life span) (Sarcoma 180J; 50 mg/kg): 160%
- numbers of 40 day survivors (Sarcoma 180J; 50 mg/kg): 2
- Average Relative Survival (Sr) ([1]; 1.5 mg/kg): 42.5
- Average Relative Survival (Sr) ([1]; 5 mg/kg): 62.5
- Average Relative Survival (Sr) ([1]; 15 mg/kg): 65.5

SMILES: CCCCCCCCCCCCCCCCN(CCCCCCCCCCCCCCCC)Cc1cccc(C(O)CNC(C)C)c1 (stereo not shown) [Compound 3-I, N-isopropyl-2-[meta-N,N-di-n-hexadecylaminomethylphenyl]ethanolamine]
- cytotoxicity at 1 mg/kg (B-16 cells): 42.4%
- cytotoxicity at 5 mg/kg (B-16 cells): 35.1%
- cytotoxicity at 25 mg/kg (B-16 cells): 33.4%
- %ILS (percent life span) (Sarcoma 180J; 5 mg/kg): 154%
- numbers of 40 day survivors (Sarcoma 180J; 5 mg/kg): 2
- %ILS (percent life span) (Sarcoma 180J; 15 mg/kg): 185%
- numbers of 40 day survivors (Sarcoma 180J; 15 mg/kg): 4
- %ILS (percent life span) (Sarcoma 180J; 50 mg/kg): 212%
- numbers of 40 day survivors (Sarcoma 180J; 50 mg/kg): 6
- Average Relative Survival (Sr) ([1]; 1.5 mg/kg): 27
- Average Relative Survival (Sr) ([1]; 5 mg/kg): 54
- Average Relative Survival (Sr) ([1]; 15 mg/kg): 87.5

SMILES: CCCCCCCCCCCCCCCCN(CCCCCCCCCCCCCCCC)Cc1cccc(C(O)CN)c1 (stereo not shown) [Compound 4-I, 2-[meta-N,N-di-n-hexadecylaminomethylphenyl]ethanolamine]
- %ILS (percent life span) (Sarcoma 180J; 5 mg/kg): 125%
- %ILS (percent life span) (Sarcoma 180J; 15 mg/kg): 181%
- numbers of 40 day survivors (Sarcoma 180J; 15 mg/kg): 4
- %ILS (percent life span) (Sarcoma 180J; 50 mg/kg): 212%
- numbers of 40 day survivors (Sarcoma 180J; 50 mg/kg): 6
